Test system: Muscarinic receptor
Assay: Intracellular calcium assay for the effect of carbachol (Fluo-4 AM, FLIPR peak fluorescence)
Assay type: cell-based
Settings: for change in signal based on the value at 10 nM: 10 nM to 1000 nM
Procedure: Assay is run in a standard 384-well microtiter plate with a clear bottom. Cells are seeded at a density of 30,000 cells/well, and allowed to grow overnight in standard tissue culture medium, under standard tissue culture conditions.
The next day, tissue culture supernatant is removed, and 50 μl of Calcium Reagent (Molecular Devices, Sunnyvale Calif.) is added to the wells. Plate is incubated for 1 hour at 37EC in a standard tissue culture incubator. This step loads the dye into the cells.
After the 1 hour incubation, the plate is transferred to the Molecular Device FLIPR instrument, which measures the cellular fluorescence (excitation at 488 nm /emission 515 nm filter), in one second intervals. The dye is hydrolyzed in the cell by esterases and becomes fluorescent. The instrument adds 25 microliters of carbachol (agonist for cellular calcium response) 10 seconds after the initiation of the read, and the increase in free cellular calcium resulting from carbachol stimulation is measured as an increase in cellular fluorescent signal.
The reagent: 3 μM Fluo-4 AM dye (Molecular Probes, Eugene Oreg.), 150 nM antibody in HEPES buffer (pH 7.4) containing 1% fetal bovine serum (Sigma), 0.1% Pluronic F127 (BASF) and 0.5 mM probenecid (Sigma) is added.
Instrument software identifies peak fluorescence, which is directly correlated to cellular calcium levels.

C[N+](C)(C)CCOC(N)=O [Carbachol]
change in signal based on the value at 10 nM (commercial reagent): 21% | change in signal based on the value at 10 nM (present reagents): 161% | Calcium Assay, RFU (peak fluorescence) (carbachol 10 nM, Commercial Reagents (prior art, Quencher-Ab conjugate -)): 9410 RFU | Calcium Assay, RFU (peak fluorescence) (carbachol 10 nM, DiscoveRx Reagents (present reagents, Quencher-Ab conjugate +)): 2589 RFU | Calcium Assay, RFU (peak fluorescence) (carbachol 1000 nM, Commercial Reagents (prior art, Quencher-Ab conjugate -)): 11348 RFU | Calcium Assay, RFU (peak fluorescence) (carbachol 1000 nM, DiscoveRx Reagents (present reagents, Quencher-Ab conjugate +)): 6767 RFU | difference in signal in going from 10 nM to 1000 nM (commercial reagent): 1938 RFU | change in signal in going from 10 nM to 1000 nM (present reagents): 4178 RFU
